Literature values in patent publication US7329495B2 (Board of Regents, the University of Texas System, priority 2004, dated 2008).

Target: KIT protein (c-KIT K642E) (Homo sapiens, UniProt P10721, K642E)
Settings: human GIST cell line, homozygous exon 13 c-KIT K642E

Sequence of KIT protein (c-KIT K642E) (P10721 26-976 K642E): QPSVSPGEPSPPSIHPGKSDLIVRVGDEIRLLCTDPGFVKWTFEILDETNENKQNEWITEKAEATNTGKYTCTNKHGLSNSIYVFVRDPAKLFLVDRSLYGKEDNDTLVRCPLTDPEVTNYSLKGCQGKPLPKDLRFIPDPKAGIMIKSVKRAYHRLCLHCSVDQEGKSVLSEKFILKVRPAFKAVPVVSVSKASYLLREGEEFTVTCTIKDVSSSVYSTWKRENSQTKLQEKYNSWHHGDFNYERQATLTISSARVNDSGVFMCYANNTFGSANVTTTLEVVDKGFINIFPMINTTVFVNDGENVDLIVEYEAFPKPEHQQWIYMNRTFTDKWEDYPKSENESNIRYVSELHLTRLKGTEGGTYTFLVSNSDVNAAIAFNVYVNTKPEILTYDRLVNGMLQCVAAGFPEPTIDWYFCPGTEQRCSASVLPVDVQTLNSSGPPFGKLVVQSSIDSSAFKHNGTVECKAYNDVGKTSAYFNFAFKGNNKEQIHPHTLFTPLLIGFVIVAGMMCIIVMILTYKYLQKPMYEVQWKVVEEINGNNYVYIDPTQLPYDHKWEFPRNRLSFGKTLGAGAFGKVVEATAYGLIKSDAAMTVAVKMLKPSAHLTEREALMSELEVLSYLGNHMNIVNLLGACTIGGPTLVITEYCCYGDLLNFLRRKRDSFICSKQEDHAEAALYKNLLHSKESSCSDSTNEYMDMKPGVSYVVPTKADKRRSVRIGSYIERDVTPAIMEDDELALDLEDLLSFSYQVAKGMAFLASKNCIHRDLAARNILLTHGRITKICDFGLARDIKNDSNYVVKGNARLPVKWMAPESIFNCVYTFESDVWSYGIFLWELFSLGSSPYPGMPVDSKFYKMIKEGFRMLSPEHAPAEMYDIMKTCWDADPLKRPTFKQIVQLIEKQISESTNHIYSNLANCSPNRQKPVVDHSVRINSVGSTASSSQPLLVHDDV

Structure (SMILES): Cc1ccc(NC(=O)c2ccc(CN3CCN(C)CC3)cc2)cc1Nc1nccc(-c2cccnc2)n1 [imatinib]
- constitutive KIT tyrosine phosphorylation after introducing STI571 to the cells: abolished
